Source: patent publication US8987217B2, “Modified saponins for the treatment of fungal infections” (The General Hospital Corporation, priority 2010, dated 2015)
In brackets after ≈: the same amount, converted by molar mass. Where two headings read alike, the source gives them in different places.

Assays:
Assay type in all cases: cell-based
C. albicans DAY185 [1] = test: photodynamic inactivation (PDI) with photosensitizers; conditions: 4 μg/mL A16, 10 μM PEI-ce6
Method: The PS used were Rose Bengal (RB, Sigma-Aldrich, St. Louis, Mo.) and chlorin(e6) (ce6, Frontier Scientific, Logan, Utah). PEI-ce6 was synthesized as a covalent conjugate between polyethylenimine (MW range 10,000-25,000, an average of one ce6 per chain) and ce6 as described previously (Tegos et al., Antimicrob Agents Chemother, 50:1402-1410 (2006)). Stock solutions were prepared in water at a concentration of 2 mM and stored for a maximum of 2 weeks in the dark at 4° C. before use. Spectra of stock solutions of PS diluted 140- to 280-fold in methanol were recorded. A noncoherent light source with interchangeable fiber bundles (LC122; LumaCare, London, United Kingdom) was employed. Thirty-nanometer-band-pass filters at ranges of 540±15 nm for RB, and 660±15 nm for ce6 and PEI-ce6 were used. […]
Photodynamic inactivation utilizes a non-toxic dye, or photosensitizer (PS), which is able to generate reactive oxygen species, such as singlet oxygen and hydroxyl radical, in the presence of oxygen and low-intensity light of the correct wavelength to be absorbed by the PS ultimately producing toxic effects in microbial cells (Fuchs et al., Antimicrob Agents Chemother, 51:2929-2936 (2007)). […] The survival fraction and uptake (molecules/cell) of C. albicans was determined for PDI mediated by the 3 different PSs with or without A16 pre-incubation for various time periods ranging between 1-24 hours. […]

[2] = test system: C. albicans DAY185 hyphae; test: in vitro hyphal inhibition in RPMI 1640
Method: (§1) Caspofungin (Merck) served as a known antifungal compound control. In vitro hyphal inhibition was assessed by incubation of DAY185 in RPMI 1640 media at 37° C. After 48 hours the cultures were visually inspected for hyphal formation by microscopy. The ability of the antifungal compound A16, at either 2 or 4 μg/mL, to induce osmotic stress was assessed using DAY185 grown in a 96 well microtiter plate containing RPMI 1640 media and NaCl, ranging in concentrations from 0-2 M in 0.25 M increments. The growth of the fungus was measured spectrophotometrically after 48 hours of growth at 35° C.
C. albicans biofilms are composed of hyphae, pseudohyphae, yeast cells, and an extracellular matrix, where the hyphae play an integral role within this complex. In order to address the reduction in biofilm formation in the presence of saponins, we tested the ability of compound A16 to inhibit hyphae formation at various concentrations in RPMI.

C. albicans DAY185 [3] = test: NaCl induced osmotic stress growth assay; conditions: 2 μg/mL A16; untreated control 1.25 M
Method: as §1
The C. albicans cell wall and membrane are important for osmoregulation to maintain proper physiological conditions to carryout enzymatic reactions. Since saponins are able to disrupt the fungal cell membrane, external osmotic stress should also have detrimental effects on the fungal cell. C. albicans was grown in the presence of 2 μg/mL of compound A16 under various salt concentrations to assess the effect the saponin has on salt induced osmotic stress.

C. albicans strains = test: MIC by standard CLSI microdilution protocol M27-A
Method: Using the standard Clinical and Laboratory Standards Institute (CLSI) procedure, the in vitro MIC of these two compounds was determined on the following C. albicans strains: DAY185 (the standard strain used throughout the screen), two fluconazole-resistant strains of C. albicans, and an echinocandin-resistant strain of C. albicans (Table 2).
The minimal inhibitory concentration (MIC) was determined for strains DAY185, 98-145, 95-120 (White et al., Antimicrob Agents Chemother, 46:1704-1713 (2002)), and A15-10 (Garcia-Effron et al., Antimicrob Agents Chemother, 53:112-122 (2009)) spectrophotometrically using RPMI 1640 media (Mediatech, Inc.) following the standard CLSI microdilution protocol M27-A (National Committee for Clinical Laboratory Standards, Reference method for broth dilution susceptibility testing of yeasts. Tentative standard M27-A, Villanova, Pa. (1995)). Biofilm assays using identified compounds were conducted as previously described (Richard et al., Eukaryot Cell, 4:1493-1502 (2005)). The biofilm dry mass was determined by drying the silicone squares in a chemical hood, and weighing the resulting biofilm mass subtracting the previously weighed mass of the silicone square. Biofilm pictures were captured using a confocal laser microscope (TCS NT, Leica Microsystems). Cells were grown at 30° C., exposed to PS for 30 min, and then washed with PBS.

`CC1CC[C@@]2(OC1)O[C@H]1CC3C4C[C@@H](O)C5C[C@@H](O[C@@H]6O[C@H](CO)[C@H](O[C@@H]7O[C@H](CO)[C@@H](O)[C@H](O[C@@H]8OC[C@@H](O)[C@H](O)[C@H]8O)[C@H]7O[C@@H]7O[C@H](CO)[C@@H](O)[C@H](O)[C@H]7O)[C@H](O)[C@H]6O)[C@H](O)C[C@]5(C)C4CC[C@]3(C)[C@H]1[C@@H]2C` (stereo partly shown) [A16, Aginoside] was tested, and the “killing by PEI-ce6 mediated PDI after pre-incubation with A16” value (C. albicans DAY185 [1]) was “does not change dramatically”, the hyphae formation ([2]; 1 μg/mL) was “visible reduction in the number of hyphae” and the hyphae formation ([2]; 2 μg/mL) was “very few hyphae formed”. The “NaCl concentration at which the fungus was unable to grow” value (C. albicans DAY185 [3]) was 0.5 M, the MIC (C. albicans strains) was 16 µg/mL (≈ 15 µM) and the MIC (C. albicans strains; C. albicans DAY185) was 16 µg/mL (≈ 15 µM). For the same compound, the MIC (C. albicans strains; echinocandin-resistant strain A15) was 16 µg/mL (≈ 15 µM).
